Data as given in patent US20180030108A1, “NOVEL VOLTAGE-DEPENDENT ION CHANNEL FUSIONS AND METHOD OF USE THEREOF” (UNIVERSITE DE BORDEAUX, priority 2015, published 2018).
One block for each molecule: values may come before it.

Legend:
[1] = biological target: T1, YFP-hTRPV1-rLuc (Homo sapiens, UniProt Q8NER1); experiment: Intramolecular YFP-hTRPV1-rLuc BRET probe in HEK293T cells; format: cell-based; conditions: for effect on the CAPS dose response curve: cells pre-incubated with 1 μM inhibitor (FIG. 10); for effect on the capsaicin dose-response curve: pre-incubated 5 minutes before readings, 37° C. (FIG. 6)
T1 construct: expressed in transfected cells; host or cells: HEK293T
T1 sequence (Q8NER1 whole entry): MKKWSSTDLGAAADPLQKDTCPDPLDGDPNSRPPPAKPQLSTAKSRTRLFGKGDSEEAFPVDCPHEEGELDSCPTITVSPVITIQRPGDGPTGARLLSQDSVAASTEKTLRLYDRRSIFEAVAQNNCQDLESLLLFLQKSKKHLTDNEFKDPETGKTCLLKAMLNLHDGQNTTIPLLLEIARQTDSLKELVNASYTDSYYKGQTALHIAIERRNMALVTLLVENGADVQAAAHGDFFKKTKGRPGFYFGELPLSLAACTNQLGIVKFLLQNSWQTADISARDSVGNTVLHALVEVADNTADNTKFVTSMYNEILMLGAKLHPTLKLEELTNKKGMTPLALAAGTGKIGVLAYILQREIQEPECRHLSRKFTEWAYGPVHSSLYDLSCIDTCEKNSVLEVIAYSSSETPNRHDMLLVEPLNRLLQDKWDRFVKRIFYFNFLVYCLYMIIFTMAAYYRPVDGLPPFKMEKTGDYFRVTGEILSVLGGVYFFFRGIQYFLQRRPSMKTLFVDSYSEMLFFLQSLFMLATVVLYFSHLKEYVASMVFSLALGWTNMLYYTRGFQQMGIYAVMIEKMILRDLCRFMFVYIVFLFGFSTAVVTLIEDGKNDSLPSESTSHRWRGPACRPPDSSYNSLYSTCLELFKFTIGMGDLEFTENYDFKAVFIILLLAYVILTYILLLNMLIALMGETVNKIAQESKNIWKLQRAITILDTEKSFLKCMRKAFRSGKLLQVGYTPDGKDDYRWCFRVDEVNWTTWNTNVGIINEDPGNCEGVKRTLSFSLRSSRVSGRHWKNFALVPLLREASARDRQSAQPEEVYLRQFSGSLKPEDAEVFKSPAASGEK

[2] = biological target: YFP-hTRPV3-rLuc (Homo sapiens, UniProt Q8NET8); conditions: 33° C., kinetic
Sequence of YFP-hTRPV3-rLuc (Q8NET8 whole entry): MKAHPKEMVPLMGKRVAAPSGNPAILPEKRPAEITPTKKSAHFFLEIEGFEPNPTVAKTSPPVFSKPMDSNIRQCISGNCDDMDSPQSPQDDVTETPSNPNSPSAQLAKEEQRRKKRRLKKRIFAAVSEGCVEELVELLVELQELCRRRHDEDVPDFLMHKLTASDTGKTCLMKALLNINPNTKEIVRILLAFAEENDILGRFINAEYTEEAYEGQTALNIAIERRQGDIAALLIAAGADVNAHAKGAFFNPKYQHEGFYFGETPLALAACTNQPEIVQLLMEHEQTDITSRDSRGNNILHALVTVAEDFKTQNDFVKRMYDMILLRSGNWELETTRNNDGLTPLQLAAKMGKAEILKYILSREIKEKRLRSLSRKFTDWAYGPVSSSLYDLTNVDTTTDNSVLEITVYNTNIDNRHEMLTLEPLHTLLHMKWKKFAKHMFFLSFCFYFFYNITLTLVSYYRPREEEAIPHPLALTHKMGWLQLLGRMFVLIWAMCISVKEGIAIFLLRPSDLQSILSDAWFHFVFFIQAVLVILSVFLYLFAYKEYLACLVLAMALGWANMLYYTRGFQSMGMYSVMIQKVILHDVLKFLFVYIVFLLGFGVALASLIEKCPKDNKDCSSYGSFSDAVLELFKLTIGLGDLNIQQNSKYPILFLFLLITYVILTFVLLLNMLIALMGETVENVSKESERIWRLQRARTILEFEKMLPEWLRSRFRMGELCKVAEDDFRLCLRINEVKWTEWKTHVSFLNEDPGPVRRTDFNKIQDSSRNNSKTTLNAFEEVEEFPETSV

[3] = biological target: TRPV1-Luc/YFP-CaM (Homo sapiens, UniProt Q8NER1); conditions: for effect on the CAPS dose response curve: cells pre-incubated with 1 μM inhibitor (FIG. 10)
Sequence of TRPV1-Luc/YFP-CaM (Q8NER1 whole entry): as the sequence (Q8NER1 whole entry) above

[4] = biological target: T2, TRPV4-Luc/YFP-CaM (Homo sapiens, UniProt Q9HBA0); experiment: Intermolecular TRPV4-Luc/YFP-CaM BRET test in HEK293T cells; format: cell-based
T2 construct: expressed in transfected cells; host or cells: HEK293T
T2 sequence (Q9HBA0 whole entry): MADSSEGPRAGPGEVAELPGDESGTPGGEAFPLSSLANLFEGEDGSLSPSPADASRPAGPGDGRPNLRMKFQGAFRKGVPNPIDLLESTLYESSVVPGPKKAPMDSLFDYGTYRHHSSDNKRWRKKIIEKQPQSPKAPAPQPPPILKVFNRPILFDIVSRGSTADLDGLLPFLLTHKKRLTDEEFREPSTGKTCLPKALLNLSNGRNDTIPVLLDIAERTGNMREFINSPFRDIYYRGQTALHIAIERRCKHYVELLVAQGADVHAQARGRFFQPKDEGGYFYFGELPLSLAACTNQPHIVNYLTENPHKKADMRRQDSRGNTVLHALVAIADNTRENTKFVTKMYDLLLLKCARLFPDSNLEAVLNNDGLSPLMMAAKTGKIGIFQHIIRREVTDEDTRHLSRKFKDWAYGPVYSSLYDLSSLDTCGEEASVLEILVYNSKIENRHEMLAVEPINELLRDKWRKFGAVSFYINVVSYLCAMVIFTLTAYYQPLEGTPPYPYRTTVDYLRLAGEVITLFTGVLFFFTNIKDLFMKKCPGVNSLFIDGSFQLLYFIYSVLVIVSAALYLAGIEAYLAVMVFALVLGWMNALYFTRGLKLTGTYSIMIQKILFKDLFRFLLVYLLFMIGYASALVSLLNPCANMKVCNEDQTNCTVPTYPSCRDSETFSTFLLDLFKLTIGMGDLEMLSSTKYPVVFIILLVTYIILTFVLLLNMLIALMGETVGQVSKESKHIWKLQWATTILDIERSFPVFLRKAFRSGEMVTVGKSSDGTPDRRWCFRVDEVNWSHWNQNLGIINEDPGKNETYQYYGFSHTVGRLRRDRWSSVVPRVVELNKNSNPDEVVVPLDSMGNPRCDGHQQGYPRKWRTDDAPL
Method: An intermolecular TRPV4 BRET probe where the RLuc was fused to the TRPV4 in C-terminal and YFP was fused to the N-terminus part of Calmodulin. Kinetic (FIG. 14A) and dose response curve (FIG. 14B) of the effect of the TRPV4 agonist GSK1016790A on HEK293T cells expressing the TRPV4-Luc/YFP-CaM constructs were obtained. In FIG. 14A, cells were activated with 1 μM of agonist at the time indicated with an arrow. In FIG. 14B, the test was done in presence (square) or absence of the TRPV inhibitor Ruthenium Red (10 μM).

[5] = biological target: T3, wild-type TRPV1 (Homo sapiens, UniProt Q8NER1); experiment: Intracellular calcium by Fura 2-AM, HEK293T cells expressing wild-type TRPV1; format: cell-based; conditions: 1 μM capsaicin, 37° C.
T3 construct: expressed in transfected cells; host or cells: HEK293T
T3 sequence (Q8NER1 whole entry): as the sequence (Q8NER1 whole entry) above

[6] = system: HEK293T cells transfected with an empty vector; experiment: Intracellular calcium by Fura 2-AM, HEK293T cells transfected with an empty vector; format: cell-based, human; conditions: 1 μM capsaicin, 37° C.
[7] = biological target: T1, YFP-hTRPV1-rLuc; experiment: Intracellular calcium by Fura 2-AM, HEK293T cells expressing YFP-hTRPV1-rLuc; format: cell-based; conditions: 1 μM capsaicin, 37° C.
[8] = biological target: TRPV1-Luc (human; Renilla) (UniProt Q8NER1); experiment: intermolecular BRET kinetics in living HEK293T cells co-expressing TRPV1-Luc and YFP-CaM, after capsaicin injection
Sequence of TRPV1-Luc (human; Renilla) (Q8NER1 whole entry): as above

[9] = HEK293T cells pre-incubated with the antagonist, heated
[10] = HEK293T cells pre-incubated with the antagonist
[11] = temperature rise from 25° C. to 42° C.

temperature at which BRET signal plateaued [1, 9]: 52 °C
ratio of net BRET as initially measured at 29.5° C. [1, 10]: 0.93
Molecule: c1ccc(C2(c3ccccc3)CCCO2)cc1 [2,2-Diphenyltetrahydrofuran]

Molecule: NCCOB(c1ccccc1)c1ccccc1 [2-APB, 2-Aminoethyl diphenylborinate]
evolution of the BRET signal after addition to the culture media [2]: increase in the BRET value within seconds

Molecule: CCCCCCCCC(=O)NCc1cc(OC)c(O)cc1I [6 iodo-CAPS]
temperature from which BRET signal decreased [1, 9]: 48 °C
ratio of net BRET as initially measured at 29.5° C. [1, 10]: 0.28

effect on the CAPS dose response curve [1]: right shift
effect on the capsaicin dose-response curve [1]: right-shift
effect on the CAPS dose response curve [3]: right shift
temperature-induced BRET increase ([3]; cells preincubated with inhibitor, temperature increased from 25° C. to 50° C.): no significant BRET increase
Molecule: CC(=O)Nc1nc2c(Oc3cc(-c4ccc(C(F)(F)F)cc4)ncn3)cccc2s1 [AMG517]

temperature where BRET signal started to decrease ([1]; 1 μM CPZ, medium heated from 25° C. to 50° C.): 47 °C
effect on the CAPS dose response curve [1]: right shift
effect on the capsaicin dose-response curve [1]: right-shift
effect on the CAPS dose response curve [3]: right shift
Molecule: Oc1cc2c(cc1O)CN(C(=S)NCCc1ccc(Cl)cc1)CCC2 [Capsazepine]

Molecule: CC(C)C[C@H](NC(=O)c1cc2ccccc2s1)C(=O)N1CCN(C(=O)[C@H](CO)NS(=O)(=O)c2ccc(Cl)cc2Cl)CC1 [GSK1016790A]
EC50 ([4]; control condition (absence of Ruthenium Red), log value): 12.9 µM

Molecule: N.N.N.N.N.N.N.N.N.N.N.N.N.N.[Cl-].[Cl-].[Cl-].[Cl-].[Cl-].[Cl-].[O-2].[O-2].[Ru+3].[Ru+3].[Ru+4] [Ruthenium Red]
BRET increase induced by the TRPV4 agonist GSK1016790A ([4]; Ruthenium Red 10 μM): No BRET increase

time constant (Tau) of BRET increase ([1]; after CAPS injection): 2 s
BRET over the basal signal following exposure ([1]; kinetic, HEK293T cells): robust increase of BRET
time constant (Tau) of BRET increase ([3]; after CAPS injection): 27 s
BRET over the basal signal following exposure ([3]; kinetic, HEK293T cells): robust increase of BRET
Molecule: COc1cc(CNC(=O)CCCC/C=C/C(C)C)ccc1O [capsaicin]
intracellular calcium (Fura 2, I340/I380) [5]: rapid and important increase of intracellular calcium
intracellular calcium (Fura 2, I340/I380) [6]: No calcium increase
effect of temperature rise on capsaicin dose response [1, 11]: leftward shift of the power of capsaicin while the efficacy remained unchanged
intracellular calcium (Fura 2, I340/I380) [7]: rapid and important increase of intracellular calcium
effect of temperature rise on capsaicin dose response [3, 11]: leftward shift of the power of capsaicin while the efficacy remained unchanged

time constant of the BRET increase after capsaicin [8]: 27 s
Molecule: YFP-CaM (from UniProt P0DP23 1-149)
